# Results from patent US20050075388A1 (published 2005).
row,melting point,SMILES
1,> 300 °C,O=c1oc2c(O)c(O)ccc2c(O)c1C(CCCC(c1c(O)c2ccc(O)c(O)c2oc1=O)c1c(O)c2ccc(O)c(O)c2oc1=O)c1c(O)c2ccc(O)c(O)c2oc1=O
2,> 300 °C,O=Cc1ccccc1C(c1c(O)c2ccc(O)c(O)c2oc1=O)c1c(O)c2ccc(O)c(O)c2oc1=O
3,299 to 302 °C,O=c1oc2cc(O)ccc2c(O)c1C(CCCC(c1c(O)c2ccc(O)cc2oc1=O)c1c(O)c2ccc(O)cc2oc1=O)c1c(O)c2ccc(O)cc2oc1=O
4,> 300 °C,O=c1oc2cc(O)cc(O)c2c(O)c1C1c2ccccc2Oc2c1c(=O)oc1cc(O)cc(O)c21 (stereo not shown)
5,> 300 °C,O=c1oc2cc(O)cc(O)c2c(O)c1C(CCCC(c1c(O)c2c(O)cc(O)cc2oc1=O)c1c(O)c2c(O)cc(O)cc2oc1=O)c1c(O)c2c(O)cc(O)cc2oc1=O
6,291 to 294 °C,O=c1oc2ccccc2c(O)c1C(CCCC(c1c(O)c2ccccc2oc1=O)c1c(O)c2ccccc2oc1=O)c1c(O)c2ccccc2oc1=O
7,> 300 °C,O=c1oc2cc(O)c(O)cc2c(O)c1C(CCCC(c1c(O)c2cc(O)c(O)cc2oc1=O)c1c(O)c2cc(O)c(O)cc2oc1=O)c1c(O)c2cc(O)c(O)cc2oc1=O
8,> 300 °C,O=CC(c1c(O)c2ccc(O)cc2oc1=O)c1c(O)c2ccc(O)cc2oc1=O
9,286 to 288 °C,O=c1oc2ccccc2c(O)c1C(CC(c1c(O)c2ccccc2oc1=O)c1c(O)c2ccccc2oc1=O)c1c(O)c2ccccc2oc1=O
10,258 to 260 °C,O=c1oc2cc(O)c(O)cc2c(O)c1C1=CCOc2oc3ccccc3c(=O)c21
11,> 255 °C (dec.),O=c1oc2ccccc2c(O)c1C1c2ccccc2Oc2c1c(=O)oc1ccccc21 (stereo not shown)
12,166 to 169 °C,CCOC1Oc2c(c(=O)oc3ccccc23)C1c1c(O)c2ccccc2oc1=O (stereo not shown)
13,> 300 °C,O=c1oc2cc(O)ccc2c(O)c1-c1coc2c1c(=O)oc1cc(O)ccc12
14,> 300 °C,O=Cc1ccccc1C(c1c(O)c2ccc(O)cc2oc1=O)c1c(O)c2ccc(O)cc2oc1=O
15,> 300 °C,COC1Oc2c(c(=O)oc3cc(O)ccc23)C1c1c(O)c2ccc(O)cc2oc1=O (stereo not shown)
16,254 to 256 °C,O=c1oc2cc(O)cc(O)c2c(O)c1C1=CCOc2oc3ccccc3c(=O)c21
